Laboratory results taken from patent US20170260178A1 (SPERO GYRASE, INC., priority 2012, published 2017).
≈ marks a conversion by molar mass, not a printed value.

Columns and labels:
S. aureus (ATCC 29213) = experiment: Bacterial assay: MIC against S. aureus; assay type: cell-based, Staphylococcus aureus; settings: Staphylococcus aureus, ATCC29213, read-out: minimal inhibitory concentration (MIC)
S. pyogenes (ATCC 51339) = experiment: Bacterial assay: MIC against S. pyogenes; assay type: cell-based, Streptococcus pyogenes; settings: Streptococcus pyogenes, ATCC51339, read-out: minimal inhibitory concentration (MIC)
[1] = tested on: H. influenzae (ATCC 49247); experiment: Bacterial assay: MIC against H. influenzae; assay type: cell-based; settings: Haemophilus influenzae, ATCC49247; H. influenzae ATCC 49247; read-out: minimal inhibitory concentration (MIC)

Row | Structure (SMILES) | MIC (S. aureus (ATCC 29213)) [µg/mL] | MIC (S. pyogenes (ATCC 51339)) [µg/mL] | MIC [1] [µg/mL]
1 | CCNC(=O)Nc1nc2cc(-c3cnc(C(O)C4CC4)nc3)cc(-c3ccccn3)c2s1 (centres unmarked) [Compound 58, 1-[5-[2-[cyclopropyl(hydroxy)methyl]pyrimidin-5-yl]-7-(2-pyridyl)-1,3-benzothiazol-2-yl]-3-ethyl-urea] | ≤ 1 | ≤ 1 | ≤ 2
2 | CCNC(=O)Nc1nc2cc(-c3cnc(C(C)(C)O)nc3)cc(-c3cc(CN4CCSCC4)ccn3)c2s1 [Compound 187, 1-ethyl-3-[5-[2-(1-hydroxy-1-methyl-ethyl)pyrimidin-5-yl]-7-[4-(thiomorpholinomethyl)-2-pyridyl]-1,3-benzothiazol-2-yl]urea] | ≤ 1 | ≤ 1 | ≤ 2
3 | CCNC(=O)Nc1nc2cc(-c3cnc(C4(O)CCOCC4)nc3)cc(-c3cc(CN4CCOCC4)ccn3)c2s1 [Compound 125, 1-ethyl-3-[5-[2-(4-hydroxytetrahydropyran-4-yl)pyrimidin-5-yl]-7-[4-(morpholinomethyl)-2-pyridyl]-1,3-benzothiazol-2-yl]urea] | ≤ 1 | ≤ 1 | ≤ 2
4 | CCNC(=O)Nc1nc2cc(-c3cnc([C@@H](O)[C@H](C)O)nc3)cc(-c3ccccn3)c2s1 (relative stereo) [Compound 7, 1-[5-[2-[(1S*,2R*)-1,2-dihydroxypropyl]pyrimidin-5-yl]-7-(2-pyridyl)-1,3-benzothiazol-2-yl]-3-ethyl-urea] | ≤ 1 | ≤ 1 | ≤ 2
5 | CCNC(=O)Nc1nc2cc(-c3cnc(C(C)O)nc3)cc(-c3cc(CN4CCSCC4)ccn3)c2s1 (centres unmarked) [Compound 185, 1-ethyl-3-[5-[2-[1-hydroxyethyl]pyrimidin-5-yl]-7-[4-(thiomorpholinomethyl)-2-pyridyl]-1,3-benzothiazol-2-yl]urea] | ≤ 1 | ≤ 1 | ≤ 2
6 | CCNC(=O)Nc1nc2cc(-c3cnc(C(O)CO)nc3)cc(-c3ccccn3)c2s1 (centres unmarked) [Compound 40, 1-[5-[2-(1,2-dihydroxyethyl)pyrimidin-5-yl]-7-(2-pyridyl)-1,3-benzothiazol-2-yl]-3-ethyl-urea] | ≤ 1 | ≤ 1 | ≤ 2
7 | CCNC(=O)Nc1nc2cc(-c3cnc([C@@H](C)OC(=O)[C@H](N)C(C)C)nc3)cc(-c3ccccn3)c2s1 [Compound 62, [(1R)-1-[5-[2-(ethylcarbamoylamino)-7-(2-pyridyl)-1,3-benzothiazol-5-yl]pyrimidin-2-yl]ethyl] (2R)-2-amino-3-methyl-butanoate] | ≤ 1 | ≤ 1 | ≤ 2
8 | CCNC(=O)Nc1nc2cc(-c3cnc(C(C)O)nc3)cc(-c3ccc(C(C)O)cn3)c2s1 (centres unmarked) [Compound 168, 1-ethyl-3-[7-[5-(1-hydroxyethyl)-2-pyridyl]-5-[2-(1-hydroxyethyl)pyrimidin-5-yl]-1,3-benzothiazol-2-yl]urea] | ≤ 1 | ≤ 1 | ≤ 2
9 | [2H]C1([2H])OC([2H])([2H])C([2H])([2H])N(Cc2ccnc(-c3cc(-c4cnc(C(C)(C)O)nc4)cc4nc(NC(=O)NCC)sc34)c2)C1([2H])[2H] [Compound 198, 1-ethyl-3-[5-[2-(1-hydroxy-1-methyl-ethyl)pyrimidin-5-yl]-7-[4-[(2,2,3,3,5,5,6,6-octadeuteriomorpholin-4-yl)methyl]-2-pyridyl]-1,3-benzothiazol-2-yl]urea] | ≤ 1 |  | ≤ 2
10 | CCNC(=O)Nc1nc2cc(-c3cnc(C(C)O)nc3)cc(-c3nccc(OC)c3F)c2s1 (centres unmarked) [Compound 178, 1-ethyl-3-[7-(3-fluoro-4-methoxy-2-pyridyl)-5-[2-[1-hydroxyethyl]pyrimidin-5-yl]-1,3-benzothiazol-2-yl]urea] | ≤ 1 | ≤ 1 | ≤ 2
11 | CCNC(=O)Nc1nc2cc(-c3cnc(C(C)O)nc3)cc(-c3cc(OCC4CCCO4)ccn3)c2s1 (centres unmarked) [Compound 104, 1-ethyl-3-[5-[2-(1-hydroxyethyl)pyrimidin-5-yl]-7-[4-(tetrahydrofuran-2-ylmethoxy)-2-pyridyl]-1,3-benzothiazol-2-yl]urea] | ≤ 1 | ≤ 1 | ≤ 2
12 | CCNC(=O)Nc1nc2cc(-c3cnc(C(C)(C)O)nc3)cc(-c3cc(CN4CC[C@H](F)C4)ccn3)c2s1 [Compound 35, 1-ethyl-3-[7-[4-[[(3S)-3-fluoropyrrolidin-1-yl]methyl]-2-pyridyl]-5-[2-(1-hydroxy-1-methyl-ethyl)pyrimidin-5-yl]-1,3-benzothiazol-2-yl]urea] | ≤ 1 | ≤ 1 | ≤ 2
13 | CCNC(=O)Nc1nc2cc(-c3cnc(C(C)O)cn3)cc(-c3ccccn3)c2s1 (centres unmarked) [Compound 6, 1-ethyl-3-[5-[5-(1-hydroxyethyl)pyrazin-2-yl]-7-(2-pyridyl)-1,3-benzothiazol-2-yl]urea] | ≤ 1 | ≤ 1 | ≤ 2
14 | CCNC(=O)Nc1nc2cc(-c3ccc(C(O)C(F)(F)F)nc3)cc(-c3cc(CN4CC(OC)C4)ccn3)c2s1 (centres unmarked) [Compound 155, 1-ethyl-3-[7-[4-[(3-methoxyazetidin-1-yl)methyl]-2-pyridyl]-5-[6-[2,2,2-trifluoro-1-hydroxy-ethyl]-3-pyridyl]-1,3-benzothiazol-2-yl]urea] | ≤ 1 | ≤ 1 | ≤ 2
15 | CCNC(=O)Nc1nc2cc(-c3cnc([C@@H](C)O)nc3)cc(-c3ccc(OC)cn3)c2s1 [Compound 202, 1-ethyl-3-[5-[2-[(1R)-1-hydroxyethyl]pyrimidin-5-yl]-7-(5-methoxy-2-pyridyl)-1,3-benzothiazol-2-yl]urea] | ≤ 1 |  | ≤ 2
16 | CCNC(=O)Nc1nc2cc(-c3cnc(C(C)O)nc3)cc(-c3nccc(N4CCOCC4)n3)c2s1 (centres unmarked) [Compound 94, 1-ethyl-3-[5-[2-(1-hydroxyethyl)pyrimidin-5-yl]-7-(4-morpholinopyrimidin-2-yl)-1,3-benzothiazol-2-yl]urea] | ≤ 1 | ≤ 1 | 
17 | CCNC(=O)Nc1nc2cc(-c3cnc(C(C)(C)O)nc3)cc(-c3cc(CN4CC[C@@H](OC)C4)ccn3)c2s1 [Compound 42, 1-ethyl-3-[5-[2-(1-hydroxy-1-methyl-ethyl)pyrimidin-5-yl]-7-[4-[[(3R)-3-methoxypyrrolidin-1-yl]methyl]-2-pyridyl]-1,3-benzothiazol-2-yl]urea] | ≤ 1 | ≤ 1 | 
18 | CCNC(=O)Nc1nc2cc(-c3cnc(C(C)(C)O)nc3)cc(COC)c2s1 [Compound 13, 1-ethyl-3-[5-[2-(1-hydroxy-1-methyl-ethyl)pyrimidin-5-yl]-7-(methoxymethyl)-1,3-benzothiazol-2-yl]urea] | ≤ 1 | 2 (≈ 4.98 µM) | 
19 | CCNC(=O)Nc1nc2cc(-c3cnc(C(C)(C)O)nc3)cc(-c3cc(CN4CC[S+]([O-])CC4)ccn3)c2s1 [Compound 188, 1-ethyl-3-[5-[2-(1-hydroxy-1-methyl-ethyl)pyrimidin-5-yl]-7-[4-[(1-oxo-1,4-thiazinan-4-yl)methyl]-2-pyridyl]-1,3-benzothiazol-2-yl]urea] | ≤ 1 | ≤ 1 | 
20 | CCNC(=O)Nc1nc2cc(-c3cnc(C(C)(C)O)nc3)c(OCC3CCCO3)cc2s1 (centres unmarked) [Compound 3, 1-ethyl-3-[5-[2-(1-hydroxy-1-methyl-ethyl)pyrimidin-5-yl]-6-(tetrahydrofuran-2-ylmethoxy)-1,3-benzothiazol-2-yl]urea] | ≤ 1 | ≤ 1 | 
